How the values were obtained:
PLpro = PLpro (Severe acute respiratory syndrome coronavirus, UniProt P0C6U8); experiment: biochemical; set-up: species or system SARS-CoV
melatonin MT1 receptor = melatonin MT1 receptor (Homo sapiens, UniProt P48039); format: binding
[1] = system: Eurofins lead-profiling screen; format: binding

melatonin MT1 receptor, sequence (P48039 whole entry): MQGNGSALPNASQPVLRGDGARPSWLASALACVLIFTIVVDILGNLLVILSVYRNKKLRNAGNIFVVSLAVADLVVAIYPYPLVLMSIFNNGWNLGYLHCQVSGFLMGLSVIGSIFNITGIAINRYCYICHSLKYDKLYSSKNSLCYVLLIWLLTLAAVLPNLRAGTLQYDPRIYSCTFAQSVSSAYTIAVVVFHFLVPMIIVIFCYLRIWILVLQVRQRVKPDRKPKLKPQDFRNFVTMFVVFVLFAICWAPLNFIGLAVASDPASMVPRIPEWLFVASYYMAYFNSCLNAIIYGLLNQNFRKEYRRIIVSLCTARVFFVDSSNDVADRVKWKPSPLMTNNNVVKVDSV

SMILES	IC50 (PLpro) [µM]	melatonin MT1 receptor activity in words (melatonin MT1 receptor)	Eurofins Profiler Screen result in words [1]
CCC(C)(C)NC(=O)[C@@H](c1ccn(C)c1)N(C(=O)Cn1nnc2ccccc21)c1ccc(NC(C)=O)cc1 [compound 7]	> 60		
O=C(Nc1ccc(N(Cc2ccsc2)C(=O)Cn2nnc3ccccc32)cc1)C1CC1 [16e]		modest activity	highly selective

From PMC3878165 (Bioorganic & Medicinal Chemistry Letters, 2013)
